The results in this text go back to paper PMC12481569, “Novltex: A New Class of Antibiotics with Potent Activity against Multidrug-Resistant Bacterial Pathogens–Design, Synthesis, and Biological Evaluation” (Journal of Medicinal Chemistry, 2025).

In brackets after ≈: the same amount, converted by molar mass. Several values for one entry are separate records, joined by “and”; a condition that tells them apart may be missing. Equal entries are not always repeated. Where two headings read alike, the source gives them in different places. Positions of bridges follow the written chain, without caps; N, C: chain ends. Non-standard residues stand in square brackets, D forms with d. Residues, ends and D or L forms follow the SMILES beside them. dChg = N[C@@H](C(=O)O)C1CCCCC1

Common to all, as to experiment: microbe, parasite or virus in culture
The test system of experiment [1] is Multidrug-Resistant (MDR) E. faecium. The note with it: for MIC: Enterococcus faecium. On the procedure:
(§1) We further evaluated analogue 12 against multidrug-resistant (MDR) strains of S. aureus (acquired from the NARSA collection) and MDR E. faecium (acquired from International Health Management Associates, IHMA, Europe Sarl), comparing its activity to various classes of clinically used antibiotics (Table ).
(§2) MICs were performed as previously reported 4. For MIC testing all peptides were dissolved in DMSO.
(§3) Bacterial cultures were grown overnight on Mueller-Hinton Agar (MHA) plates and adjusted to a final inoculum of 10^5 – 10^6 CFU/mL. 100 µl of ino culum in Meuller -Hinton broth (MHB) was mixed with equal volume of peptides (dissolved in MHB) at 2x their concentration in a 96 well plate . For daptomycin MIC determination, the same protocol was followed with the addition of 50 mg/L calcium chloride to the medium. MIC values were determined in the media contain ing polysorbate 80 (0.002%, v/v) to prevent non -specific adsorption of the peptides to plastic surfaces. The final peptides concentrations ranged from 0.0625 – 32 µg/mL. The 96 well plates were then incubated at 37 °C for 24 h. All the experiments were performed in two independent duplicates and the MIC was determined as the lowest concentration in which no visible growth was observed.
(§4) Antibiotics MIC break points ( µg/mL)
(§5) Table. S4: Susceptibility cut-off values (MIC breakpoints) for various clinical antibiotics. […]

Experiment [2] relates to Multidrug-Resistant (MDR) S. aureus. The conditions noted are these: for MIC: Staphylococcus aureus; for susceptibility/resistance of the S. aureus isolates based on the MIC breakpoints: four MDR S. aureus isolates. The method, then:
as §1, §2, §3, §4, §5

In experiment [3] the test system is MRSA ATCC 33591. It is filed as cell-based, Staphylococcus aureus. The conditions noted are these: for MIC against MRSA ATCC 33591: 24 h, two independent duplicates. The method, then:
as §2
as §3, with “observed. […]” for “observed.”

The mark [4] stands for this setting: 24 h, read-out: MIC, Enterococcus faecium 1563254.
The mark [5] stands for this setting: 24 h, read-out: MIC, Enterococcus faecium 1581582.
[6] abbreviates: 24 h, read-out: MIC, Enterococcus faecium 1766686.
[7] abbreviates: 24 h, read-out: MIC, Staphylococcus aureus NR 45914.
[8] abbreviates: 24 h, read-out: MIC, Staphylococcus aureus NR 45926.
The mark [9] stands for this setting: 24 h, read-out: MIC, Staphylococcus aureus NR 45930.
Setting [10] is: 24 h, read-out: MIC, Staphylococcus aureus NR 46062.
The mark [11] stands for this setting: broth dilution in MHB with 0.002% v/v polysorbate 80, inoculum 10^5-10^6 CFU/mL, 37 °C, no visible growth, Table 1.
The mark [12] stands for this setting: Table 2, MHB with 0.002% polysorbate 80, 37 °C.

Turning to `CC1(C)S[C@@H]2[C@H](NC(=O)[C@H](N)c3ccccc3)C(=O)N2[C@H]1C(=O)O` [Ampicillin], the MIC in experiment [1] (setting [4]) was > 32 µg/mL; in experiment [1] (setting [5]), > 32 µg/mL; in experiment [1] (setting [6]), > 32 µg/mL; in experiment [2] (setting [7]), 2 µg/mL (≈ 5.72 µM); in experiment [2] (setting [8]), 32 µg/mL (≈ 91.6 µM); in experiment [2] (setting [9]) it was 8 µg/mL (≈ 22.9 µM). Besides, the MIC in experiment [2] (setting [10]) was 8 µg/mL (≈ 22.9 µM). Besides, the “susceptibility/resistance of the S. aureus isolates based on the MIC breakpoints” value (“susceptibility/resistance” for short) in experiment [2] is given as 3 out of 4 isolates showed resistance.
With `CO/N=C(\C(=O)N[C@@H]1C(=O)N2C(C(=O)O)=C(COC(C)=O)CS[C@H]12)c1csc(N)n1` [Cefotaxime], the MIC in experiment [1] (setting [4]) was > 32 µg/mL; in experiment [1] (setting [5]) it was > 32 µg/mL; in experiment [1] (setting [6]), > 32 µg/mL; in experiment [2] (setting [7]), 4 µg/mL (≈ 8.78 µM); in experiment [2] (setting [8]), 16 µg/mL (≈ 35.1 µM); in experiment [2] (setting [9]), 8 µg/mL (≈ 17.6 µM). In addition, the MIC in experiment [2] (setting [10]) was found to be 16 µg/mL (≈ 35.1 µM).
Consider `C[C@H]1COc2c(N3CCN(C)CC3)c(F)cc3c(=O)c(C(=O)O)cn1c23` [Levofloxacin], for which the MIC is 32 µg/mL (≈ 88.6 µM) in experiment [1] (setting [4]); 32 µg/mL (≈ 88.6 µM) in experiment [1] (setting [5]); 32 µg/mL (≈ 88.6 µM) in experiment [1] (setting [6]); 1 µg/mL (≈ 2.77 µM) in experiment [2] (setting [7]); 4 µg/mL (≈ 11.1 µM) in experiment [2] (setting [8]); > 32 µg/mL in experiment [2] (setting [9]). The MIC in experiment [2] (setting [10]) was 32 µg/mL (≈ 88.6 µM). Also, in experiment [2], the “susceptibility/resistance” value is 3 out of 4 isolates showed resistance.
Consider `CC(=O)NC[C@H]1CN(c2ccc(N3CCOCC3)c(F)c2)C(=O)O1` [Linezolid], for which the MIC is 16 µg/mL (≈ 47.4 µM) in experiment [1] (setting [4]); 1 µg/mL (≈ 2.96 µM) in experiment [1] (setting [5]); 1 µg/mL (≈ 2.96 µM) in experiment [1] (setting [6]); 1 µg/mL (≈ 2.96 µM) in experiment [1] (read-out: MIC, two E. faecium clinical isolates that remained susceptible to linezolid); 2 µg/mL (≈ 5.93 µM) in experiment [2] (setting [7]); 32 µg/mL (≈ 94.9 µM) in experiment [2] (setting [8]). The MIC in experiment [2] (setting [9]) stood at 4 µg/mL (≈ 11.9 µM); in experiment [2] (setting [10]), 16 µg/mL (≈ 47.4 µM). Moreover, the “susceptibility/resistance” value in experiment [2] is 3 out of 4 isolates showed resistance.
With `CC(C)C[C@@H]1NC(=O)[C@@H](CC(C)C)NC(=O)[C@H](C)NC(=O)[C@@H](NC(=O)[C@H](CO)NC(=O)[C@@H](CCCCN)NC(=O)[C@@H](CC(C)C)NC(=O)[C@@H](N)Cc2ccccc2)[C@@H](C)OC1=O` [analogue 1], the “MIC against MRSA ATCC 33591” value in experiment [3] (setting [11]) was found to be 8 µg/mL (≈ 9.15 µM).
The same measure, in the same setting: under `CC(C)C[C@@H]1NC(=O)[C@@H](CC(C)C)NC(=O)[C@H](C)NC(=O)[C@H](NC(=O)[C@H](CO)NC(=O)[C@@H](CCCCN)NC(=O)[C@@H](CC(C)C)NC(=O)[C@@H](N)Cc2ccccc2)[C@H](C)OC1=O` [analogue 2] stands 32 µg/mL (≈ 36.6 µM).
`CC(C)C[C@H](NC(=O)[C@H](N)Cc1ccccc1)C(=O)N[C@@H](CCCCN)C(=O)N[C@H](CO)C(=O)N[C@H]1C(=O)N[C@@H](C)C(=O)N[C@@H](CC(C)C)C(=O)N[C@@H](CC(C)C)C(=O)O[C@H]1C` [analogue 3]: the “MIC against MRSA ATCC 33591” value in experiment [3] (setting [11]) was determined as 32 µg/mL (≈ 36.6 µM).
On to `CC(C)C[C@@H]1NC(=O)[C@H](C)NC(=O)[C@H](NC(=O)[C@H](CO)NC(=O)[C@@H](CCCCN)NC(=O)[C@@H](CC(C)C)NC(=O)[C@@H](N)Cc2ccccc2)[C@H](C)OC(=O)[C@H](CC(C)C)NC1=O` [analogue 4], for which the “MIC against MRSA ATCC 33591” value is 2 to 4 µg/mL in experiment [3] (setting [11]) and 4 µg/mL (≈ 4.58 µM) in experiment [3] (broth dilution in MHB with 0.002% v/v polysorbate 80, inoculum 10^5-10^6 CFU/mL, 37 °C, no visible growth, Table 1, listed as Novltex analogue 4).
On to `CC(C)C[C@H](NC(=O)[C@H](N)Cc1ccccc1)C(=O)N[C@H](CCCCN)C(=O)N[C@@H](CO)C(=O)N[C@H]1C(=O)N[C@@H](C)C(=O)N[C@@H](CC(C)C)C(=O)N[C@@H](CC(C)C)C(=O)O[C@H]1C` [analogue 5], for which the “MIC against MRSA ATCC 33591” value in experiment [3] (setting [11]) was > 32 µg/mL.
Still for that read-out and setting: the result for `CC(C)C[C@@H]1NC(=O)[C@H](C)NC(=O)[C@H](NC(=O)[C@@H](CO)NC(=O)[C@H](CCCCN)NC(=O)[C@@H](CC(C)C)NC(=O)[C@@H](N)Cc2ccccc2)[C@H](C)OC(=O)[C@H](CC(C)C)NC1=O` [analogue 6] reads > 32 µg/mL; that for `CC(C)C[C@@H]1NC(=O)[C@H](C)NC(=O)[C@H](NC(=O)[C@H](CO)NC(=O)[C@H](CCCCN)NC(=O)[C@@H](CC(C)C)NC(=O)[C@H](N)Cc2ccccc2)[C@H](C)OC(=O)[C@H](CC(C)C)NC1=O` [analogue 7], > 32 µg/mL and 32 µg/mL; that for `CC(C)C[C@@H]1NC(=O)[C@H](C)NC(=O)[C@H](NC(=O)[C@H](CO)NC(=O)[C@H](CCCCN)NC(=O)[C@H](CC(C)C)NC(=O)[C@@H](N)Cc2ccccc2)[C@H](C)OC(=O)[C@H](CC(C)C)NC1=O` [analogue 8], > 32 µg/mL.
On the same count and under the same terms, the result for `CC(C)C[C@@H]1NC(=O)[C@H](C)NC(=O)[C@H](NC(=O)[C@@H](CO)NC(=O)[C@@H](CCCCN)NC(=O)[C@@H](CC(C)C)NC(=O)[C@H](N)Cc2ccccc2)[C@H](C)OC(=O)[C@H](CC(C)C)NC1=O` [analogue 9] reads 16 µg/mL (≈ 18.3 µM); that for `CC[C@H](C)[C@@H]1NC(=O)[C@H](CC(C)C)NC(=O)[C@H](C)NC(=O)[C@H](NC(=O)[C@H](CO)NC(=O)[C@@H](CCCCN)NC(=O)[C@@H](CC(C)C)NC(=O)[C@@H](N)Cc2ccccc2)[C@H](C)OC1=O` [analogue 10] (H-F[dL][dK]S[dT]ALI; ester 5-C), 8 µg/mL (≈ 9.15 µM).
On to `CC(C)C[C@@H]1NC(=O)[C@H](C)NC(=O)[C@H](NC(=O)[C@H](CO)NC(=O)[C@@H](CCCCN)NC(=O)[C@H](NC(=O)[C@@H](N)Cc2ccccc2)C2CCCCC2)[C@H](C)OC(=O)[C@H](CC(C)C)NC1=O` [analogue 11, Leu2Chg–Novltex] (H-F[dChg][dK]S[dT]ALL; ester 5-C), for which, in experiment [3] (MRSA ATCC 33591), the “fold decrease in antibacterial activity (MIC) compared to analogue 12” value turned out to be 32 fold. Besides, the “MIC against MRSA ATCC 33591” value in experiment [3] (setting [12]) was 8 µg/mL (≈ 8.89 µM).
Consider `CC(C)C[C@@H]1NC(=O)[C@H](C)NC(=O)[C@H](NC(=O)[C@H](CO)NC(=O)[C@@H](CCCCN)NC(=O)[C@@H](Cc2c[nH]c3ccccc23)NC(=O)[C@@H](N)Cc2ccccc2)[C@H](C)OC(=O)[C@H](CC(C)C)NC1=O` [analogue 13, Leu2Trp–Novltex] (H-F[dW][dK]S[dT]ALL; ester 5-C), for which the “MIC against MRSA ATCC 33591” value in experiment [3] (setting [12]) is > 32 µg/mL.
Still for that read-out and setting: the result for `CC(C)C[C@@H]1NC(=O)[C@H](C)NC(=O)[C@H](NC(=O)[C@H](CO)NC(=O)[C@@H](CCCCN)NC(=O)[C@@H](Cc2ccccc2)NC(=O)[C@@H](N)Cc2ccccc2)[C@H](C)OC(=O)[C@H](CC(C)C)NC1=O` [analogue 14, Leu2Phe–Novltex] (H-F[dF][dK]S[dT]ALL; ester 5-C) reads 8 µg/mL (≈ 8.81 µM); that for `CC(C)C[C@@H]1NC(=O)[C@H](C)NC(=O)[C@H](NC(=O)[C@H](CO)NC(=O)[C@@H](CCCCN)NC(=O)[C@@H](Cc2ccc(O)cc2)NC(=O)[C@@H](N)Cc2ccccc2)[C@H](C)OC(=O)[C@H](CC(C)C)NC1=O` [analogue 15, Leu2Tyr–Novltex] (H-F[dY][dK]S[dT]ALL; ester 5-C), >32 µg/mL.
As to Clovibactin, the “MIC, Enterococcus faecium 1563254” value in experiment [1] (MDR clinical isolate 1563254, MHB, 0.002% polysorbate 80, 37 °C, 24 h, daptomycin with 50 mg/L calcium chloride) was 0.063 µg/mL. Further, the “MIC, Enterococcus faecium 1581582” value in experiment [1] (MDR clinical isolate 1581582, MHB, 0.002% polysorbate 80, 37 °C, 24 h, daptomycin with 50 mg/L calcium chloride) is 0.25 µg/mL. For the same compound, in experiment [1] (MDR clinical isolate 1766686, MHB, 0.002% polysorbate 80, 37 °C, 24 h, daptomycin with 50 mg/L calcium chloride), the “MIC, Enterococcus faecium 1766686” value stood at 0.25 µg/mL. Besides, the “MIC, Staphylococcus aureus NR 45914” value in experiment [2] (MDR strain NR 45914, MHB, 0.002% polysorbate 80, 37 °C, 24 h, daptomycin with 50 mg/L calcium chloride) stood at 0.063 µg/mL. In experiment [2] (MDR strain NR 45926, MHB, 0.002% polysorbate 80, 37 °C, 24 h, daptomycin with 50 mg/L calcium chloride), the “MIC, Staphylococcus aureus NR 45926” value turned out to be 0.063 µg/mL. For the same compound, the “MIC, Staphylococcus aureus NR 45930” value in experiment [2] (MDR strain NR 45930, MHB, 0.002% polysorbate 80, 37 °C, 24 h, daptomycin with 50 mg/L calcium chloride) was 0.25 µg/mL. Moreover, in experiment [2] (MDR strain NR 46062, MHB, 0.002% polysorbate 80, 37 °C, 24 h, daptomycin with 50 mg/L calcium chloride), the “MIC, Staphylococcus aureus NR 46062” value was found to be 0.063 µg/mL.
